Data: patent US5077292A, “(2-imidazolin-2-ylamino) tetrahydroquinoxalines and methods for using same” (priority 1989, dated 1991)

Assays:
intraocular pressure = assay: effect on intraocular pressure, topical unilateral administration to rabbit eye; format: in vivo, New Zealand white rabbit; conditions: 0.1% (W/V)
Protocol: The three (3) tetrahydroquinoxaline derivatives produced in accordance with Examples 1 to 3 were tested to determine what effect, if any, these materials have on intraocular pressure.
Each of these materials was dissolved in distilled water at a concentration of 0.1% (W/V). Each of these solutions was administered topically and unilaterally to one eye of a drug-naive, unanesthetized New Zealand white rabbit in a single 50 micro liter drop. The contralateral eye received an equal volume of saline prior to determining the intraocular pressure after the mixture was administered. Also, approximately 10 micro liters of 0.5% (W/V) proparacaine (topical anesthetic) was applied to the corneas of each of the rabbits before determining intraocular pressure. As a control test, six (6) other drug-naive, unanesthetized New Zealand white rabbits were treated and tested as described above except that no tetrahydroquinoxaline derivative was included in the solutions administered to the eyes.
The intraocular pressure was determined in both eyes of each rabbit before and after the solutions were administered. Such intraocular pressure determinations were made in the conventional manner using conventional equipment.

[1] = tested on: Alpha 1 Adrenergic Receptors; assay: Rabbit Aorta: Alpha 1 Adrenergic Receptors; format: cell-based, albino rabbit; conditions: rabbit aorta rings, 37° C., field stimulated; n = number of test runs
Protocol: (§1) The tetrahydroquinoxalines produced in Examples 1 to 3 were tested for activity using the following in vitro methods.
Rabbit Aorta: Alpha 1 Adrenergic Receptors
(§2) Thoracic aorta and saphenous vein specimens were obtained from albino rabbits that were killed by CO2 inhalation. The aorta and saphenous vein were each cut into 3 mm rings. Tissues were placed in Krebs-Hensleit solution of the following composition (millimolar): NaCl 119; KCl 4.7; MgSO4 1.5, KH2 PO4 1.2; CaCl2 2.5; NaHCO3 25 and glucose 11.0. The solution also contained cocaine (0.1 millimolar) to block neuronal uptake and EDTA (30 micromolar) and ascorbic acid (5 micromolar) to prevent oxidation of the tetrahydroquinoxaline being tested. Tissues were hung in 10 ml organ baths and tension was measured via Grass FT03 force-displacement transducers. Resting tension was 1 g and 2 g for the saphenous vein and aorta, respectively. The solution was gassed with 95% O2 and 5% CO2 and maintained at 37° C. Tissues were allowed to equilibrate for 2 hours before stimulation and the cumulative addition of the tetrahydroquinoxaline being treated was started. Tissue stimulation was performed as with the rabbit vas deferens, described above. The contractions of the tissue were recorded isometrically as for the rabbit vas deferens assay. Cumulative concentration response curves were obtained and the EC50 valve developed for each tetrahydroquinoxaline tested in a manner similar to that for the rabbit vas deferens assay.

[2] = target: T1, Alpha 2 Adrenergic Receptors (Oryctolagus cuniculus, UniProt Q5ZQK3); assay: Rabbit Vas Deferens: Alpha 2 Adrenergic Receptors; format: cell-based, New Zealand white rabbit; conditions: 35° C., field stimulated, 50% reduction in response height, n = number of test runs
T1 construct: from tissue; host or cells: New Zealand white rabbit vas deferens, prostatic end, field stimulated
T1 sequence (Q5ZQK3 1-451): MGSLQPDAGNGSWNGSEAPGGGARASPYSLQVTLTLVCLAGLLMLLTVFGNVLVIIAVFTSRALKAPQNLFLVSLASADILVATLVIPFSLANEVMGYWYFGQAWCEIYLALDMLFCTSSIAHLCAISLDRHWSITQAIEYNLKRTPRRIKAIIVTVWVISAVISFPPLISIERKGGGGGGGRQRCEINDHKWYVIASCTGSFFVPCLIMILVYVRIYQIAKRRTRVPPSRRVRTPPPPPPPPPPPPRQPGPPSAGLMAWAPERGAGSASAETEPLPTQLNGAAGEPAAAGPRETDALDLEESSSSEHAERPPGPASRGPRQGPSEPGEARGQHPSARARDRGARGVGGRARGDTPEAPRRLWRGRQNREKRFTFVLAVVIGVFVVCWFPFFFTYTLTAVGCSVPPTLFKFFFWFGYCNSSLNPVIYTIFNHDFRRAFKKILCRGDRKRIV
Protocol: as §1
Rabbit Vas Deferens: Alpha 2 Adrenergic Receptors
New Zealand white rabbits (2-3 kg) were killed by CO2 inhalation and the vasa deferentia removed. The prostatic ends of the vasa deferentia (2-3 cm lengths) were mounted between platinum ring electrodes in 9 ml organ baths and bathed in Krebs bicarbonate solution of the following composition (millimolar): NaCl 118.0; KCl 4.7; CaCl2 2.5; MgSO4 1.2; KH2 PO4 1.2; glucose 11.0; NaHCO3 25.0; which solution was maintained at 35° C. and bubbled with 95% O2 and 5% CO2. The initial tension of the vas deferens was 0.5 g. The tissues were left to equilibrate for 30 minutes before stimulation was started. Vasa were then field stimulated (0.1 Hz, 2 ms pulse width at 90 mA) using a square wave stimulator (WPI A310 Accupulser with A385 stimulus). […] Cumulative concentration-response curves were obtained for the tetrahydroquinoxaline being tested with a 4 minute contact time at each concentration. The reduction in response height was measured and expressed as a percentage of the height of the response before the addition of tetrahydroquinxoaline. Concentration response curves for each of tetrahydroquinoxalines were plotted. The effective concentration required for a 50% reduction in response height, expressed as EC50, were obtained from these curves and are set forth below.

[3] = tested on: Alpha 3 Adrenergic Receptors; assay: Rabbit Saphenous Vein: Alpha 3 Adrenergic Receptors; format: cell-based, albino rabbit; conditions: rabbit saphenous vein rings, 37° C., field stimulated; n = number of test runs
Protocol: as §1
Rabbit Saphenous Vein: Alpha 3 Adrenergic Receptors
as §2, with “Cumulative concentration response curves were obtained and the EC50 valve developed for each tetrahydroquinoxaline tested in a manner similar to that for the rabbit vas deferens assay.” left out

urine flow = assay: renal effects (urine flow), intraduodenal administration; format: in vivo, Sprague-Dawley rats; conditions: test run 3 times
Protocol: (§3) The tetrahydroquinoxaline produced in Example 1 was tested for renal and blood pressure effects using the following method.
(§4) Young male (20-24 weeks old) Sprague-Dawley rats were used. Under ketamine (60 mg/kg b.wt. i.m.) and pentobarbital (i.p. to effect) anesthesia, medical grade plastic tubes were implanted into the abdominal aorta and vena cava via the femoral vessels. In addition, a Silastic-covered stainless steel cannula were sewn in the urinary bladder. After the surgery, the rats were housed individually and were allowed free access to food and water until the day of the experiment.
(§5) For about 7 to 10 days before surgery and during recovery, the rats were accustomed to a restraining cage by placement in the cage for 2 to 3 hours every 2nd and 3rd day. The cage was designed for renal clearance studies (a model G Restrainer sold by Braintree Scientific, Inc., Braintree, Mass.). The animals' adjustment to the cage was judged by the stability of blood pressure and heart rate.
For an experiment, a rat was placed in the restraining cage, and the arterial line was connected to a Statham pressure transducer and a Beckman Dynograph R61 to monitor the mean arterial blood pressure, hereinafter referred to as MAP. The venous line was connected to an infusion pump system for infusion of replacement fluid. The tetrahydroquinoxaline was administered intraduodenally by cannula. The bladder cannula was extended with a silastic tube to facilitate collection of urine in preweighed tubes. The volume of urine was measured gravimetrically. Body weight was recorded before and after the experiment.
Throughout the experiments, 0.9% NaCl containing 10% polyfructosan (Inutest) and 1% sodium PAH was infused at a rate of 20 microliters/min. An equilibration period of 60 minutes was followed by two consecutive 30 minute control clearance periods. Then, the tetrahydroquinoxaline was administered for 90 minutes. Urine collection was resumed 10 minutes after the start of tetrahydroquinoxaline administration. By this time the washout of the bladder cannula dead space (approximately 200 microliters) was completed. Three additional clearance measurements were made. Blood samples (150 microliters) were collected at the midpoint of urine collections. Plasma was separated and saved for analyses, and the cells were resuspended in saline and returned to the animals. Water and sodium loss was carefully replaced i.v. by a variable speed infusion pump.

[4] = tested on: mean arterial blood pressure; assay: blood pressure effects (MAP) in renal test, intraduodenal administration; format: in vivo, Sprague-Dawley rats; conditions: test run 3 times
Protocol: as §3, §4, §5
For an experiment, a rat was placed in the restraining cage, and the arterial line was connected to a Statham pressure transducer and a Beckman Dynograph R61 to monitor the mean arterial blood pressure, hereinafter referred to as MAP. […] The volume of urine was measured gravimetrically. Body weight was recorded before and after the experiment. […]

dmPGE2-induced diarrhea = assay: anti-diarrheal effects in cecectomized rats, dmPGE2-induced diarrhea; format: in vivo; conditions: p.o.
Protocol: (§6) The tetrahydroquinoxaline produced in Example 1 was tested for anti-diarrheal effects and blood pressure effects using the following method.
(§7) Cecectomies were performed in unfasted rats as follows. Under anesthesia with methohexital (60 mg/kg. i.p.), a laparotyphlectomy was initiated with a 2 cm midventral incision. The cecum was lifted from the abdominal cavity and exteriorized onto a gauze drape. The cecal apex was freed by severing the avascular area of the mesocecum. Next, a ligature of #1 silk suture was positioned so as to occulude the cecum and its vasculature without compromising ileo-colonic patency. After the ligature was secured and ileo-colonic patency confirmed, the cecum was resected, and the remaining exposed cecal mucosa was washed with saline and cauterized. The intestinal segment was then returned to the abdominal cavity, and the abdominal muscle facia closed with interrupted 4/0 chromic-gut sutures. The dermal incision was closed with 9 mm stainless steel wound clips that were removed approximately 1 week post surgery. An arterial line was also implanted into the abdominal aorta and vena cava via the femoral vessels, in a manner similar to that described in Example 10. Immediately following the surgical procedure, animals were returned to their cages and allowed free access to food and water. Animals were permitted at least 48 hour recovery period before being used in experiments.
(§8) The cecectomized rats were put into individual wire-bottomed cages placed over sheets of clean paper, and deprived of food and water for the duration of the assay. The MAP was monitored, as described in Example 10, throughout the assay. Rats were given a 2 hour acclimatization period prior to the start of the assay in order to eliminate sporadic episodes of anxiety-induced defecation. During this period they were observed also for consistent occurrences of pelleted feces; an animal producing other than a pelleted stool was disqualified from the study.
(§9) Diarrhea was induced with oral administration of 16,16-dimethyl prostaglandin E2 (dmPGE2) in 3.5% EtOH. The tetrahydro-quinoxaline was administered by gavage after the onset of diarrheal episodes. The cage papers were removed and examined at 30 minute intervals for dmPGE2 -induced diarrhea. Fecal output was recorded at each interval and fecal consistency is assigned a numerical score in each experimental group as follows: 1=normal pelleted stool; 2=soft-formed stools; 3=water stool and/or diarrhea. The fecal output index (FOI) is defined as the summation of the number of defecation episodes and their ranked consistency score within an observation period.

[5] = tested on: mean arterial blood pressure; assay: blood pressure effects (MAP) in anti-diarrheal test; format: in vivo, rats; conditions: p.o.
Protocol: as §6, §7, §8, §9

## Brc1c(NC2=NCCN2)ccc2c1NCCN2 [Example 1, 5-Bromo-6-(2-imidazolin-2-ylamino)-1,2,3,4-tetrahydroquinoxaline]
Intraocular pressure; treated rabbit eye
  effect on intraocular pressure in the treated eye (in words): effective to reduce intraocular pressure in the treated rabbit eye
Intraocular pressure; treated rabbit eye, initial effect
  initial effect on intraocular pressure in the treated eye (in words): raising the intraocular pressure
[1]
  EC50: 1.13 ± 0.207 µM
[2]
  EC50: 0.00175 µM
[3]
  EC50: 0.092 ± 0.019 µM
Urine flow; 0.01 mg/kg
  Increase in Urine Flow: 0 microliters/min./100 g of body
Urine flow; 0.03 mg/kg
  Increase in Urine Flow: 4 microliters/min./100 g of body
Urine flow; 0.1 mg/kg, P less than 0.05
  Increase in Urine Flow: 16 microliters/min./100 g of body
Urine flow; 0.3 mg/kg, P less than 0.05
  Increase in Urine Flow: 24 microliters/min./100 g of body
Urine flow; 1 mg/kg, P less than 0.05
  Increase in Urine Flow: 32 microliters/min./100 g of body
[4]; 0.3 mg/kg
  Increase in MAP: 2.5 mm Hg
[4]; 1 mg/kg
  Increase in MAP: 8 mm Hg
dmPGE2-induced diarrhea; 0.01 mg/kg
  Percent Reduction in FOI versus dmPGE2 Control: 17%
dmPGE2-induced diarrhea; 0.03 mg/kg
  Percent Reduction in FOI versus dmPGE2 Control: 60%
dmPGE2-induced diarrhea; 0.10 mg/kg
  Percent Reduction in FOI versus dmPGE2 Control: 57%
dmPGE2-induced diarrhea; 0.30 mg/kg
  Percent Reduction in FOI versus dmPGE2 Control: 76%
dmPGE2-induced diarrhea; 1.00 mg/kg
  Percent Reduction in FOI versus dmPGE2 Control: 98%
dmPGE2-induced diarrhea; 3.00 mg/kg
  Percent Reduction in FOI versus dmPGE2 Control: 98%
dmPGE2-induced diarrhea; 10.00 mg/kg
  Percent Reduction in FOI versus dmPGE2 Control: 100%
dmPGE2-induced diarrhea; cecectomized rats, dmPGE2-induced diarrhea
  anti-diarrheal effects (in words): substantial anti-diarrheal effects
[5]; 0.01 mg/kg
  Increase in MAP: 0 mm Hg
[5]; 0.03 mg/kg
  Increase in MAP: 0 mm Hg
[5]; 0.10 mg/kg
  Increase in MAP: 0 mm Hg
[5]; 0.30 mg/kg
  Increase in MAP: 0 mm Hg
[5]; 1.00 mg/kg
  Increase in MAP: 0 mm Hg
[5]; 3.00 mg/kg
  Increase in MAP: 10 mm Hg
[5]; 10.00 mg/kg
  Increase in MAP: 25 mm Hg
[5]; cecectomized rats
  effect in blood pressure accompanying anti-diarrheal effects (in words): no or a relatively minimal effect in blood pressure

## Brc1c(NC2=NCCN2)ccc2c1NCCN2 [drawing 5]
Intraocular pressure; single 50 micro liter drop, treated eye, initial effect, N.S. = not statistically significant
  Difference In Intraocular Pressure, Initial Effect On Treated Eye: +10.7 ± 3.6%
Intraocular pressure; single 50 micro liter drop, treated eye, maximum effect, N.S. = not statistically significant
  Difference In Intraocular Pressure, Maximum Effect on Treated Eye: -16.0 ± 3.3%
Intraocular pressure; single 50 micro liter drop, untreated (contralateral) eye, maximum effect, N.S. = not statistically significant
  Difference In Intraocular Pressure, Maximum Effect On Untreated Eye: N.S.
